The target of one assay is T1, human thrombin (Homo sapiens, UniProt P00734).
T1 construct: purchased Sigma T-6759
Description: Inhibitory activity for thrombin (chromogenic substrate hydrolysis, 405 nm). It is filed as biochemical. Particulars: for Selectivity (trypsin/thrombin): IC50 for trypsin divided by IC50 for thrombin; for IC50: human thrombin, 20 min, pH 8.0, N-benzoyl-Phe-Val-Arg-p-nitroanilide. Here is the method: 20 μl of each compound of the present invention was dissolved in 50% methanol in various concentrations and then added to each well of a microplate, to each of which 160 μl of the reaction medium containing 125 mM NaCl, 50 mM Tris-HCl (pH 8.0) and 2 mM synthetic substrate (N-benzoyl-Phe-Val-Arg-p-nitroanilide, Sigma B-7632) were added. 20 μl of human thrombin solution (5 units/ml, Sigma T-6759, manufactured by Sigma Co.) containing 0.1% bovine serum albumin was added to each well to initiate the enzymatic reaction. After 20 minutes, the hydrolysis of substrate was determined by measuring the absorbance at 405 nm. […] The selectivity index was calculated by dividing the IC50 value for trypsin by the IC50 value for thrombin. The thrombin inhibitory activity and the trypsin inhibitory activity for the compound of the present invention are shown in the following Table 2.

For assay [1], the system named is thrombin time (TT) in rat plasma. The assay can be described thus: Thrombin time (TT) in rat plasma after oral administration. It counts as in vivo, SD male rats. The conditions noted are these: TT after / TT before administration. Here is the method: SD male rats weighing 220±20 g which had fasted overnight were used as experimental animals. Blood taken from the hearts of the experimental animals just before administration of the test compound and at 30, 60, 120 and 240 minutes after oral administration of the test compound was mixed with 0.108M sodium citrate in the ratio of 9:1. The mixtures thereby obtained were centrifuged at 15,000 rpm for 5 minutes at 4° C. to separate the plasma, which was stored at -20° C. until the TT was measured by means of the method described below.
200 μl of Owren's buffer was added to 50 μl of the plasma and 100 μl of the diluted plasma thereby obtained was injected into the vial of a coagulometer and then incubated for 2 minutes at 37° C. To each vial was added 100 μl of thrombin at a concentration of 20 U/ml, which had prewarmed at 37° C., to measure the time (TT) until clotting occurred. The ratio of the TT in rat plasma after administration of the test compound to the TT in rat plasma before administration of the test compound was calculated.

The test system of a further assay is trypsin. The assay can be described thus: Inhibitory activity for trypsin. It is filed as biochemical.

The results in this text go back to patent US6201006A, “Aromatic amidine derivatives useful as selective thrombin inhibitors” (C & C Research Laboratories, priority 1996, dated 2001).

Turning to `CCn1c(CCC2CCCN2C(=O)C2CCCN2C(CCO)C(=O)O)cc2ccc(C(=N)N)cc21` [Compound 118, 2-[(R)-2-[[(S)-2-[2-(6-amidino-1-ethylindol-2-yl)ethyl]pyrrolidinyl]carbonyl]pyrrolidinyl]-4-hydroxy-butanoic acid], on human thrombin, the “Selectivity (trypsin/thrombin)” value is listed as 14.5 and the IC50 turned out to be 12.3 nM. Also, the “Plasma TT ratio after administration to rat” value (shortened to “Plasma TT ratio”) in assay [1] (50 mg/kg oral) stood at 8.80.

Turning to `CCn1c(CC[C@@H]2CCCN2Cc2c(C(N)=O)sc3ccccc23)cc2ccc(C(=N)N)cc21` [Compound 8], at human thrombin, the “Selectivity (trypsin/thrombin)” value is on record as 48.6 and half-maximal inhibition (IC50) was put at 9.47 nM. Besides, the half-inhibitory concentration (IC50) in the assay on trypsin stood at 460 nM.

With `CCn1c(CC[C@@H]2CCCN2C(=O)[C@H]2CCCN2S(C)(=O)=O)cc2ccc(C(=N)N)cc21` [Compound 184, 1-ethyl-2-[2-[(S)-1-[[(R)-1-(methanesulfonyl)pyrrolidin-2-yl]carbonyl]pyrrolidin-2-yl]ethyl]indole-6-carboxamidine], the “Selectivity (trypsin/thrombin)” value on human thrombin was 57.9. Besides, the results for the IC50 on human thrombin and in the assay with trypsin were 9.51 nM and 551 nM, respectively.

As for `CCOC(=O)CCCN1CCC[C@@H]1C(=O)N1CCC[C@H]1CCc1cc2ccc(C(=N)N)cc2n1CC` [Compound 126, ethyl 4-[(R)-2-[[(S)-2-[2-(6-amidino-1-ethylindol-2-yl)ethyl]pyrrolidinyl]carbonyl]pyrrolidinyl]butanoate], on human thrombin, 40.5 nM corresponded to half-maximal inhibition (IC50). Moreover, the “Plasma TT ratio” value in assay [1] (50 mg/kg oral) is listed as 5.40.

As for `CC(=O)N1CCC[C@@H]1C(=O)N1CCC[C@H]1CCc1cc2ccc(C(=N)N)cc2n1C` [Compound 170, 1-methyl-2-[2-[(S)-1-[((R)-1-acetylpyrrolidin-2-yl)-carbonyl]pyrrolidin-2-yl]ethyl]indole-6-carboxamidine], on human thrombin, the “Selectivity (trypsin/thrombin)” value is 31.9 and the IC50 came out at 33.5 nM. Besides, half-maximal inhibition in the assay with trypsin (IC50) required 1070 nM.

Turning to `CCn1c(CC[C@@H]2CCCN2C(=O)[C@H]2CCCN2C(=O)[C@@H](N)CC(=O)O)cc2ccc(C(=N)N)cc21` [Compound 149, 4-[(R)-2-[[(S)-2-[2-(6-amidino-1-ethylindol-2-yl)ethyl]pyrrolidinyl]carbonyl]pyrrolidinyl]-(S)-3-amino-4-oxobutanoic acid], on human thrombin, the IC50 amounted to 10.4 nM. Besides, in assay [1] (50 mg/kg oral), the “Plasma TT ratio” value is 9.24.

For the compound `CCn1c(CC[C@@H]2CCCN2C(=O)[C@H]2CCCN2C(=O)CCC(=O)O)cc2ccc(C(=N)N)cc21` [Compound 177], at human thrombin, the “Selectivity (trypsin/thrombin)” value was determined as 26.6 and the IC50 was found to be 18.8 nM. In the assay with trypsin, this compound displayed an IC50 of 500 nM.

In the case of `CCOC(=O)[C@@H](N)CC(=O)N1CCC[C@@H]1C(=O)N1CCC[C@H]1CCc1cc2ccc(C(=N)N)cc2n1CC` [Compound 159, ethyl 4-[(R)-2-[[(S)-2-[2-(6-amidino-1-ethylindol-2-yl)-ethyl]pyrrolidinyl]carbonyl]pyrrolidinyl]-(S)-2-amino-4-oxobutanoate], on human thrombin, the “Selectivity (trypsin/thrombin)” value worked out at 20.7 and the IC50 was 19.3 nM. Besides, the “Plasma TT ratio” value in assay [1] (50 mg/kg oral) worked out at 6.23.

On to `CCOC(=O)CN1CCC[C@@H]1C(=O)N1CCC[C@H]1CCc1cc2ccc(C(=N)NC(=O)OC(C)C)cc2n1CC` [Compound 270, ethyl 2-[(R)-2-[[(S)-2-[2-[1-ethyl-6-[imino[(methylethoxy)carbonylamino]methyl]indol-2-yl]ethyl]pyrrolidinyl]carbonyl]pyrrolidinyl]acetate], for which the “Plasma TT ratio” value is 1.46 in assay [1] (30 mg/kg oral) and 4.30 in assay [1] (50 mg/kg oral).

With `CCn1c(CC[C@@H]2CCCN2C(=O)[C@H]2CCCN2C(=O)C2CCCCN2)cc2ccc(C(=N)N)cc21` (stereo partly drawn) [Compound 167, 1-ethyl-2-[2-[(S)-1-[[(R)-1-[(2-piperidyl)carbonyl]pyrrolidin-2-yl]carbonyl]pyrrolidin-2-yl]ethyl]indole-6-carboxamidine], at human thrombin, the “Selectivity (trypsin/thrombin)” value was found to be 17.6 and the midpoint of inhibition, the IC50, lay at 18.3 nM. Also, the IC50 in the assay on trypsin is 322 nM.

On human thrombin, `CCn1c(CC[C@@H]2CCCN2C(=O)[C@H]2CCCN2CCCC(=O)O)cc2ccc(C(=N)N)cc21` [Compound 127, 4-[(R)-2-[[(S)-2-[2-(6-amidino-1-ethylindol-2-yl)ethyl]pyrrolidinyl]carbonyl]pyrrolidinyl]butanoic acid] yielded an IC50 of 21.7 nM. Further, in assay [1] (50 mg/kg oral), the “Plasma TT ratio” value turned out to be 8.00.

Regarding `CCn1c(CC[C@@H]2CCCN2C(=O)[C@H]2CCCN2C(=O)[C@@H](N)CC(N)=O)cc2ccc(C(=N)N)cc21` [Compound 148, 1-ethyl-2-[2-[(S)-1-[[(R)-1-((S)-2-amino-3-carbamoylpropanoyl)pyrrolidin-2-yl]carbonyl]pyrrolidin-2-yl]ethyl]indole-6-carboxamidine], on human thrombin, the “Selectivity (trypsin/thrombin)” value was determined as 19.2. For the same compound, the IC50 turned out to be 23 nM at human thrombin and 443 nM in the assay on trypsin.

Turning to `CCOC(=O)CN1CCCC1C(=O)N1CCCC1CCc1cc2ccc(C(=N)NC(=O)OC(Cl)(Cl)Cl)cc2n1CC` [Compound 272, ethyl 2-[(R)-2-[[(S)-2-[2-[6-[[(trichloromethoxy)carbonylamino]iminomethyl]-1-ethylindol-2-yl]ethyl]pyrrolidinyl]carbonyl]pyrrolidinyl]acetate], the “Plasma TT ratio” value in assay [1] (30 mg/kg oral) is 1.76; in assay [1] (50 mg/kg oral), 2.84.

For `CCOC(=O)CN1CCC[C@@H]1C(=O)N1CCC[C@H]1CCc1cc2ccc(C(=N)NC(=O)OCC)cc2n1CC` [Compound 267, ethyl 2-[(R)-2-[[(S)-2-[2-[1-ethyl-6-[(ethoxycarbonylamino)iminomethyl]indol-2-yl]ethyl]pyrrolidinyl]carbonyl]pyrrolidinyl]acetate], the “Plasma TT ratio” value in assay [1] (50 mg/kg oral) stood at 4.48.

For `C=CC(=O)N1CCC[C@@H]1C(=O)N1CCC[C@H]1CCc1cc2ccc(C(=N)N)cc2n1CC` [Compound 182, 1-ethyl-2-[2-[(S)-1-[((R)-1-prop-2-enoyl-pyrrolidin-2-yl)carbonyl]pyrrolidin-2-yl]ethyl]indole-6-carboxamidine], the “Selectivity (trypsin/thrombin)” value at human thrombin is given as 30.0. Also, the IC50 came out at 10.1 nM against human thrombin and 304 nM in the assay with trypsin.

As for `CCn1c(CC[C@@H]2CCCN2C(=O)[C@H]2CCCN2C(=O)[C@H](C)N)cc2ccc(C(=N)N)cc21` [Compound 143, 1-ethyl-2-[2-[(S)-1-[[(R)-1-((S)-2-aminopropanoyl)pyrrolidin-2-yl]carbonyl]pyrrolidin-2-yl]ethyl]indole-6-carboxamidine], on human thrombin, the “Selectivity (trypsin/thrombin)” value is on record as 75.2 and the IC50 came out at 5.46 nM. The compound further showed an IC50 in the assay with trypsin of 410 nM.

On to `CCn1c(CC[C@@H]2CCCN2C(=O)[C@H]2CCCN2C(=O)CC(C)O)cc2ccc(C(=N)N)cc21` (stereo partly drawn) [Compound 180, 1-ethyl-2-[2-[(S)-1-[[(R)-1-(3-hydroxybutanoyl)pyrrolidin-2-yl]carbonyl]pyrrolidin-2-yl]-ethyl]indole-6-carboxamidine], for which the “Selectivity (trypsin/thrombin)” value at human thrombin is given as 31.8. The IC50 against human thrombin came to 11 nM; in the assay on trypsin it was 351 nM.

In the case of `CCOC(=O)CN[C@@H](C(=O)N1CCC[C@H]1CCc1cc2ccc(C(=N)N)cc2n1CC)c1ccccc1` [Compound 38, ethyl 2-[[(R)-2-[2-[(S)-2-[2-(6-amidino-1ethylindol-2-yl)ethyl]pyrrolidinyl]-2-oxo1-phenyl]ethyl]amino]acetate], at human thrombin, the “Selectivity (trypsin/thrombin)” value turned out to be 24.2 and the IC50 worked out at 7.59 nM. Moreover, the IC50 with trypsin was determined as 184 nM.

On to `CCn1c(CC[C@@H]2CCCN2C(=O)[C@H]2CCCN2C2CCOC2=O)cc2ccc(C(=N)N)cc21` (stereo partly drawn) [Compound 125, 1-ethyl-2-[2-[(S)-1-[[(R)-1-(2-oxo-3-oxolanyl)pyrrolidin-2-yl]carbonyl]pyrrolidin-2-yl]ethyl]indole-6-carboxamidine], for which, at human thrombin, the “Selectivity (trypsin/thrombin)” value worked out at 34.7 and 22.3 nM corresponded to half-maximal inhibition (IC50). For the same compound, in the assay on trypsin, the IC50 came out at 775 nM.

Regarding `CCn1c(CC[C@@H]2CCCN2C(=O)Cc2cccc(Cl)c2)cc2ccc(C(=N)N)cc21` [Compound 15], on human thrombin, the “Selectivity (trypsin/thrombin)” value is recorded as 30.2 and it took 20.1 nM to reach half-maximal inhibition (IC50). Moreover, 608 nM corresponded to half-maximal inhibition in the assay with trypsin (IC50).

Regarding `CCn1c(CC[C@@H]2CCCN2C(=O)[C@H]2CCCN2C(CCO)C(N)=O)cc2ccc(C(=N)N)cc21` (stereo partly drawn) [Compound 117, 1-ethyl-2-[2-[(S)-1-[[(R)-1-(1-carbamoyl-3-hydroxypropyl)pyrrolidin-2-yl]carbonyl]pyrrolidin-2-yl]-ethyl]indole-6-carboxamidine], at human thrombin, the “Selectivity (trypsin/thrombin)” value is 48.6 and the IC50 stood at 16.7 nM. For the same compound, the IC50 in the assay on trypsin is 811 nM.

Usually IC50 stands for the point on the concentration scale where inhibition reaches its midpoint. High values mean a need for much substance, low ones inhibition by little substance.
